Measured values from PubChem BioAssay AID493108 (The Scripps Research Institute Molecular Screening Center, 2011).
Calls of active or inactive are those of the source. No rule for the calls is given here.

Columns and labels:
Assay in all cases: in situ serine hydrolase inhibition, LYPLA1/LYPLA2/ABHD11 – cell-based, gel-based ABPP, fluorescence, late-stage follow-up (AID 493108)
Conditions in all cases: cells, competitive ABPP fluorescence gel, at 0.03 µM, stronger effect = higher value
ABHD11 = tested on: ABHD11
LYPLA1 = tested on: LYPLA1
LYPLA2 = tested on: LYPLA2

Row | SMILES | inhibition (ABHD11) [%] | inhibition (LYPLA1) | inhibition (LYPLA2)
1 | CC(C)(C)C1CCN(C(=O)n2ncc(C(O)(c3ccccc3)c3ccccc3)n2)CC1 | 100 | 100% | 100%
2 | CC(C)(O)c1cnn(C(=O)N2CCC(C(C)(C)C)CC2)n1 | 100 | 100% | 100%
3 | CCC1CCCCN1C(=O)n1ncc(C(O)(c2ccccc2)c2ccccc2)n1 (centres undefined) | 100 | 0% (inactive) | 0% (inactive)
